The subject of experiment [1] is HMLER-shEcad cells. Description: HMLER-shEcad viability with co-incubated necroptosis/apoptosis inhibitors. The class given is cell-based, human. The following applies: 20 μM necrostatin-1 or 5 μM z-VAD-FMK (FIG. 9C, 9D).
Experiment [2] relates to HMLER-shEcad mammospheres. Description: Tumoursphere formation and viability assay (TOX8). The class given is cell-based, human. The following applies: for decrease in activity, two-dimensional versus mammospheres: HMLER-shEcad 2D IC50 versus mammosphere IC50.
Experiment [3] in a line: Tryptophan fluorescent binding assay, POPC vesicles. The following applies: 50 μM peptide, PBS pH 7.4, lipid per peptide. A digest of the protocol: (§1)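 Binding followed by tryptophan emission (300-450 nm, 280 nm excitation, 3 scans averaged) after 60 min incubation of 50 μM peptide with 0-5000 μM extruded 100 nm POPC or 3:1 POPC/POPG vesicles in PBS pH 7.4. Value: lipid-to-peptide ratio at half-maximal binding.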

Experiment [4] is described as follows: Tryptophan fluorescent binding assay, 3POPC/1POPG vesicles. The following applies: 50 μM peptide, PBS pH 7.4, lipid per peptide. A digest of the protocol:
as §1

The nature of experiment [5]: ANTS/DPX liposome leakage assay, POPC vesicles. The class given is biochemical. The following applies: 0.5 mM vesicles; for Peptide Concentration-induced 50% ANTS/DPX leakage at pH 4.8, POPC Vesicle: pH 4.8, lipid per peptide; for Peptide Concentration-induced 50% ANTS/DPX leakage at pH 7.4, POPC Vesicle: pH 7.4, lipid per peptide. A digest of the protocol: (§2)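 Peptide titrations (0–20 μM) were incubated 3 h with 0.5 mM ANTS/DPX-loaded 100 nm vesicles, either POPC alone or 3:1 POPC/POPG, at pH 7.4 or pH 4.8 in PBS. ANTS fluorescence (350/510 nm) normalized to Triton-lysed vesicles; 50%-leakage values given as lipid:peptide ratio.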

Experiment [6] can be described thus: ANTS/DPX liposome leakage assay, 3POPC/1POPG vesicles. It counts as biochemical. The following applies: for Peptide Concentration-induced 50% ANTS/DPX leakage at pH 4.8, 3POPC/1POPG Vesicle / Peptide Concentration-induced 50% ANTS/DPX leakage at pH 7.4, 3POPC/1POPG Vesicle: 0.5 mM vesicles; for Peptide Concentration-induced 50% ANTS/DPX leakage at pH 4.8, 3POPC/1POPG Vesicle: pH 4.8, lipid per peptide; for Peptide Concentration-induced 50% ANTS/DPX leakage at pH 7.4, 3POPC/1POPG Vesicle: pH 7.4, lipid per peptide. The gist of the method:
as §2

For experiment [7], the system named is HEK293T (human embryonic kidney cell). Nature of the experiment: cells. Particulars: 72 h.
In experiment [8] the test system is HMLER (human breast cancer bulk cell). Description: cells. Particulars: 72 h. A digest of the protocol: (§3)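 MTT viability after 72 h exposure to 0–100 μM compound (final DMSO 0.5% or 0%), 5×10^3 cells/well; HMLER lines and MCF-10A in MEGM, U2OS in DMEM with 10% FBS. A550 normalized to matching vehicle controls; IC50 interpolated from dose–response curves.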
Experiment [9] relates to HMLER-shEcad (human breast cancer stem cell). Description: cells. A digest of the protocol:
as §3

Experiment [10] relates to MCF-10A (human breast epithelial cell). Description: cells. The following applies: 72 h. The gist of the method:
as §3

Experiment [11] has as its system U2OS (human bone osteosarcoma). Particulars: 72 h. A digest of the protocol: as §3

Where two headings read alike, the source gives them in different places.

On to `CC(C)C[C@@H](NC(=O)CN)C(=O)N[C@H](CC(C)C)C(=O)N[C@H](CCC(=O)O)C(=O)N[C@H](CC(C)C)C(=O)N[C@H](CC(C)C)C(=O)N[C@H](CCC(=O)O)C(=O)N[C@H](CC(C)C)C(=O)N[C@H](CC(C)C)C(=O)N[C@H](CC(C)C)C(=O)N[C@H](CCCCN)C(=O)N[C@H](C)C(=O)N[C@H](C)C(=O)NCC(=O)N[C@H](Cc1c[nH]c2ccccc12)C(N)=O` [D-form EEK], for which the “cell viability on co-incubation with necrostatin or z-VAD-FMK” value (“cell viability on co-incubation” for short) in [1] was “cannot be improved”.
`COc1cccc2c1C(=O)c1c(O)c3c(c(O)c1C2=O)C[C@@](O)(C(=O)CO)C[C@@H]3O[C@H]1C[C@H](N)[C@H](O)[C@H](C)O1` [Doxorubicin, doxorubicin, reference compound]: the “decrease in activity, two-dimensional versus mammospheres” value in [2] is 1,700 fold. The “cell viability on co-incubation” value in experiment [1] is on record as “can be dramatically improved”.
For the molecule `CC(C)C[C@H](NC(=O)CN)C(=O)N[C@@H](CC(C)C)C(=O)N[C@@H](CCC(=O)O)C(=O)N[C@@H](CC(C)C)C(=O)N[C@@H](CC(C)C)C(=O)N[C@@H](CCC(=O)O)C(=O)N[C@@H](CC(C)C)C(=O)N[C@@H](CC(C)C)C(=O)N[C@@H](CC(C)C)C(=O)N[C@@H](CCCCN)C(=O)N[C@@H](C)C(=O)N[C@@H](C)C(=O)NCC(=O)N[C@@H](Cc1c[nH]c2ccccc12)C(N)=O` [EEK], the “Lipid Concentration-induced 50% Peptide Binding, POPC Vesicle” value in experiment [3] came to 0.48 L/P. Further, the “Lipid Concentration-induced 50% Peptide Binding, 3POPC/1POPG Vesicle” value in experiment [4] came out at 4.50 L/P. Moreover, in experiment [5], the “Peptide Concentration-induced 50% ANTS/DPX leakage at pH 4.8, POPC Vesicle” value was determined as 39 L/P and the “Peptide Concentration-induced 50% ANTS/DPX leakage at pH 7.4, POPC Vesicle” value is 730 L/P. For the same molecule, in experiment [6], the “Peptide Concentration-induced 50% ANTS/DPX leakage at pH 4.8, 3POPC/1POPG Vesicle” value came to 386 L/P and the “Peptide Concentration-induced 50% ANTS/DPX leakage at pH 7.4, 3POPC/1POPG Vesicle” value is given as 657 L/P. Besides, the “liposome leakage activity from anionic vesicle at pH 4.8 (in words)” value in experiment [6] (anionic versus zwitterionic vesicle, pH 4.8) is given as “relatively higher liposome leakage activity”. For the same molecule, the “cell viability on co-incubation” value in experiment [1] is listed as “cannot be improved”.
Turning to `CC(C)C[C@H](NC(=O)CN)C(=O)N[C@@H](CC(C)C)C(=O)N[C@@H](CCCCN)C(=O)N[C@@H](CC(C)C)C(=O)N[C@@H](CC(C)C)C(=O)N[C@@H](CCC(=O)O)C(=O)N[C@@H](CC(C)C)C(=O)N[C@@H](CC(C)C)C(=O)N[C@@H](CC(C)C)C(=O)N[C@@H](CCC(=O)O)C(=O)N[C@@H](C)C(=O)N[C@@H](C)C(=O)NCC(=O)N[C@@H](Cc1c[nH]c2ccccc12)C(N)=O` [KEE], the IC50 in experiment [7] is 11.1 ± 1.84 µM; in experiment [8] it was 3.75 ± 0.78 µM; in experiment [9] (72 h), 2.05 ± 0.21 µM; in experiment [10], ≥ 100 µM; in experiment [11] it was 49.4 ± 13.3 µM. For the same molecule, the “Lipid Concentration-induced 50% Peptide Binding, POPC Vesicle” value in experiment [3] is listed as 0.20 L/P. For the same molecule, in [4], the “Lipid Concentration-induced 50% Peptide Binding, 3POPC/1POPG Vesicle” value turned out to be 0.20 L/P. In addition, in experiment [5], the “Peptide Concentration-induced 50% ANTS/DPX leakage at pH 4.8, POPC Vesicle” value amounted to 97 L/P. Besides, the “Peptide Concentration-induced 50% ANTS/DPX leakage at pH 7.4, POPC Vesicle” value in experiment [5] is reported as 626 L/P. In addition, the “Peptide Concentration-induced 50% ANTS/DPX leakage at pH 4.8, 3POPC/1POPG Vesicle” value in [6] is reported as 108 L/P. In addition, the “Peptide Concentration-induced 50% ANTS/DPX leakage at pH 7.4, 3POPC/1POPG Vesicle” value in experiment [6] amounted to 657 L/P.
Consider `CC[C@@H](C(=O)[C@@H](C)[C@@H](O)[C@H](C)[C@@H]1O[C@@H]([C@@H](CC)C(=O)O)CC[C@@H]1C)[C@H]1O[C@]2(C=C[C@@H](O)[C@]3(CC[C@@](C)([C@H]4CC[C@](O)(CC)[C@H](C)O4)O3)O2)[C@H](C)C[C@@H]1C` [Salinomycin, salinomycin, reference compound], for which the IC50 came out at 0.41 ± 0.1 µM in [7] (Homo sapiens, HEK-293T, read-out: IC50 HEK293T); 0.37 ± 0.08 µM in experiment [8] (Homo sapiens, read-out: IC50 HMLER); 0.92 ± 0.28 µM in experiment [9] (Homo sapiens, 72 h, read-out: IC50 HMLER-shEcad); 0.37 ± 0.0005 µM in experiment [9] (Homo sapiens, read-out: IC50 against two-dimensional HMLER-shEcad); 9.76 ± 2.28 µM in [10] (Homo sapiens, MCF-10A, read-out: IC50 MCF-10A); 22 ± 5 µM in experiment [2] (Homo sapiens, read-out: IC50 in mammospheres). The “decrease in activity, two-dimensional versus mammospheres” value in experiment [2] is on record as 63 fold.

Broadly, the IC50 is the concentration at which inhibition is half-maximal.

The record behind these values is patent US20250326794A1, “ANTI-CANCER LEUCINE-RICH PEPTIDES AND USES THEREOF” (KING'S COLLEGE LONDON, priority 2019, published 2025).
